# Results from paper PMC4125815, “Crystal structure of tRNA m^1A58 methyltransferase TrmI from Aquifex aeolicus in complex with S-adenosyl-L-methionine” (Journal of Structural and Functional Genomics, 2014).
# Molecular target: T1, A. aeolicus TrmI (Aquifex aeolicus, UniProt O66653)
# T1 construct: gene aq_311
# Experiment: X-ray crystal structure of the complex, […] Å
# Assay type: binding
# Conditions: co-crystallised with 2 mM AdoMet, pH 8.4, 20 °C; methyl donor site in C-terminal domain, 4 AdoMet per tetramer
# T1 sequence (O66653 1-248): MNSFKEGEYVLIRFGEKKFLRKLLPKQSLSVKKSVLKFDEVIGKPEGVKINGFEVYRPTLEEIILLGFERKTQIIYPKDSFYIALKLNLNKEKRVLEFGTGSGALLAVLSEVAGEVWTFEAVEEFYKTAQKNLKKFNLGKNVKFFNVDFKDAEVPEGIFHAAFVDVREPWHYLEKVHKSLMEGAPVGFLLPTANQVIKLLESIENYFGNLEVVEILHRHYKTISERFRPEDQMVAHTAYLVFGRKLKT
compound,measurement,value
C[S+](CC[C@H](N)C(=O)O)C[C@H]1O[C@@H](n2cnc3c(N)ncnc32)[C@H](O)[C@@H]1O (stereo partly shown) [AdoMet],"X-ray crystal structure of the complex, 2.2 Å",The methyl donor AdoMet is bound in the C-terminal domain of the protein
